Literature values as cited in PMC8900053, “Selumetinib in combination with dexamethasone for the treatment of relapsed/refractory RAS-pathway mutated paediatric and adult acute lymphoblastic leukaemia (SeluDex): study protocol for an international, parallel-group, dose-finding with expansion phase I/II trial” (BMJ Open, 2022).

Tests used:
[1] = human, in vivo
[2] = early information from clinical studies
[3] = common side effect of selumetinib

Row | SMILES | Tolerability of pulsed dosing versus continuous dosing [1] | Chance that blurred vision may affect daily living (blurred vision mild or moderate in all reported previous cases) | Being sick (people affected) [3] [%] | Diarrhoea (people affected) [3] [%] | Feeling sick (people affected) [3] [%] | Feeling tired or weak (people affected) [3] [%] | Shortness of breath (people affected) [3] [%] | Skin rash, which may be itchy (people affected) [3] [%] | Swelling of the hands or feet (people affected) [3] [%] | Tolerability (more than 3,080 people have had the drug so far) | Swelling of the face or extremities (patients receiving selumetinib) | Skin rash cases that can be more serious and require treatment (share of skin rash cases, majority of events are mild) | Blood levels of selumetinib in people of Asian origin versus non-Asian subjects [2]
1 | C[C@@H]1C[C@H]2[C@@H]3CCC4=CC(=O)C=C[C@]4(C)[C@@]3(F)[C@@H](O)C[C@]2(C)[C@@]1(O)C(=O)CO [dexamethasone] | better tolerated |  |  |  |  |  |  |  |  |  |  |  | 
2 | Cn1cnc2c(F)c(Nc3ccc(Br)cc3Cl)c(C(=O)NOCCO)cc21 [selumetinib] |  | about 5% | ~30 | ~50 | ~50 | ~40 | ~20 | ~70 | ~30 | very well tolerated | commonly reported | around 10% | higher
